This is an account of results in ChEMBL document CHEMBL3137667, “[Drug-induced liver injury; fourteenth updated edition of the bibliographic database of liver injuries and related drugs]” (Gastroenterol Clin Biol, 2004).

Data set [1] is described as follows: Highest frequency of acute liver toxicity observed during clinical trials, expressed as a percentage. [column '% AIGUE' in source]. The note with it: human.
The conditions of data set [2]: human, serum, 4383 h.
For data set [3] the following is noted: human.
For data set [4] the following is noted: human, serum.
For data set [5] the following is noted: human. This is another data set of the same source.
The conditions of data set [6]: human, serum. This is another data set of the same source.
Data set [7] is described as follows: Times to onset, minimal and maximal, observed in the indexed observations. [column 'DELAI' in source]. The note with it: human.
A short description of data set [8]: Comments (NB not yet translated). [column 'COMMENTAIRES' in source]. The note with it: human.
For data set [9] the following is noted: human. The source holds these as a separate data set.
The conditions of data set [10]: human. This is another data set of the same source.
The conditions of data set [11]: human. The source holds these as a separate data set.
Data set [12] in a line: Highest frequency of moderate liver toxicity observed during clinical trials, expressed as a percentage. [column '% BIOL' in source]. The note with it: human.
For data set [13] the following is noted: human. The source holds these as a separate data set.
For data set [14] the following is noted: human. This is another data set of the same source.
For data set [15] the following is noted: human. The source holds these as a separate data set.
The conditions of data set [16]: human. The source holds these as a separate data set.
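Throughout, for Hepatotoxicity (association with vascular disease): count of indexed literature references reporting vascular liver injury in humans, e.g. peliosis hepatitis, hepatic veno-occlusive disease or Budd-Chiari syndrome.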
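Throughout, for Hepatotoxicity (benign tumour): value is a count of indexed literature references citing a benign tumour confirmed by histopathology.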
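Throughout, for Hepatotoxicity (choleostasis): human cholestatic liver injury, shown by histopathology or by peak ALT or AST elevation over alkaline phosphatase ratio below 2, value counts indexed literature reports.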
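Throughout, for Hepatotoxicity (chronic liver disease): chronic liver injury confirmed by histopathology or persistently raised serum aminotransferase activity beyond 6 months, value given as the count of indexed literature references.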
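Throughout, for Hepatotoxicity (cirrhosis): value is a count of indexed literature references reporting cirrhosis confirmed by histopathology.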
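Throughout, for Hepatotoxicity (cytolytic): human cytolytic liver injury, shown by histopathology or by a ratio above 5 of peak ALT or AST elevation to alkaline phosphatase elevation, value counts indexed references.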
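Throughout, for Hepatotoxicity (granulomatous hepatitis): value is a count of indexed literature references reporting granulomatous liver disease confirmed by histopathology.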
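Throughout, for Hepatotoxicity (malignant tumour): malignant tumour confirmed by histopathology, value gives the count of indexed literature references reporting it.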
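Throughout, for Hepatotoxicity (severe hepatitis): human clinical data: severe hepatitis, meaning potentially life-threatening liver failure or clinically observed cases, the value counts how many indexed literature references report it.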
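Throughout, for Hepatotoxicity (steatosis): steatosis confirmed by histopathology, value is the count of indexed references.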

With `CC(Cc1ccccc1)NN` (stereo not drawn) [PHENIPRAZINE], the figures for the “Hepatotoxicity (acute)” value in [1] and in [6] were 0% and 7, respectively. In data set [2], the “Hepatotoxicity (chronic liver disease)” value came to 0. The “Hepatotoxicity (association with vascular disease)” value in [3] was found to be 0. The “Hepatotoxicity (moderate)” value is reported as 0 in [4] and 0% in [12]. Further, the “Hepatotoxicity (malignant tumour)” value in [5] is listed as 0. In addition, the “Hepatotoxicity (time to onset)” value in data set [7] is 2 weeks - 7 months. Besides, the “Hepatotoxicity (comment)” value in [8] is listed as “RC/NIALAMIDE/IPRONIAZIDE”. Besides, the “Hepatotoxicity (cytolytic)” value in [9] came to 7. In data set [10], the “Hepatotoxicity (benign tumour)” value came out at 0. Also, the “Hepatotoxicity (steatosis)” value in data set [11] is 0. For the same compound, the “Hepatotoxicity (severe hepatitis)” value in data set [13] came out at 5. Moreover, the “Hepatotoxicity (granulomatous hepatitis)” value in data set [14] was 0. The “Hepatotoxicity (choleostasis)” value in data set [15] came out at 0. Besides, in [16], the “Hepatotoxicity (cirrhosis)” value is listed as 0.

In the case of `CC(CN(C)C)CN1c2ccccc2Sc2ccc(C#N)cc21` (stereo not drawn) [CYAMEMAZINE], the figures for the “Hepatotoxicity (acute)” value in data set [1] and in data set [6] were 0% and 4, respectively. In data set [2], the “Hepatotoxicity (chronic liver disease)” value is listed as 0. For the same compound, the “Hepatotoxicity (association with vascular disease)” value in [3] is recorded as 0. In addition, the “Hepatotoxicity (moderate)” value in data set [4] is 0; in data set [12] it was 0%. Besides, the “Hepatotoxicity (malignant tumour)” value in data set [5] is given as 0. Also, the “Hepatotoxicity (time to onset)” value in [7] came to 2 days - 7 weeks. Besides, in [8], the “Hepatotoxicity (comment)” value is “CHOLANGITE #CIRROSE_BILIAIRE RC/DESIPRAMINE/TRIMIPRAMINE”. In addition, the “Hepatotoxicity (cytolytic)” value in data set [9] was 1. In addition, in [10], the “Hepatotoxicity (benign tumour)” value was determined as 0. In addition, the “Hepatotoxicity (steatosis)” value in data set [11] amounted to 0. The “Hepatotoxicity (severe hepatitis)” value in [13] is given as 1. In addition, in [14], the “Hepatotoxicity (granulomatous hepatitis)” value amounted to 1. Besides, in [15], the “Hepatotoxicity (choleostasis)” value is 3. The “Hepatotoxicity (cirrhosis)” value in data set [16] was found to be 0.

With `CC(=O)c1ccc2c(c1)N(CCCN(C)C)c1ccccc1S2` [ACEPROMAZINE], the “Hepatotoxicity (acute)” value in data set [1] was 0%; in data set [6] it was 1. In data set [2], the “Hepatotoxicity (chronic liver disease)” value is recorded as 0. For the same compound, the “Hepatotoxicity (association with vascular disease)” value in [3] was determined as 0. The entries for the “Hepatotoxicity (moderate)” value in [4] and in data set [12] were 0 and 0%, respectively. Also, the “Hepatotoxicity (malignant tumour)” value in data set [5] worked out at 0. In addition, the “Hepatotoxicity (time to onset)” value in data set [7] is listed as 3 months. The “Hepatotoxicity (comment)” value in data set [8] is listed as “CHOLESTASE_PROLONGEE”. Moreover, the “Hepatotoxicity (cytolytic)” value in data set [9] was found to be 0. In addition, the “Hepatotoxicity (benign tumour)” value in [10] stood at 0. Further, the “Hepatotoxicity (steatosis)” value in [11] came to 0. Besides, the “Hepatotoxicity (severe hepatitis)” value in data set [13] worked out at 0. Further, the “Hepatotoxicity (granulomatous hepatitis)” value in [14] is listed as 0. For the same compound, in data set [15], the “Hepatotoxicity (choleostasis)” value is listed as 1. For the same compound, the “Hepatotoxicity (cirrhosis)” value in data set [16] was 0.

In the case of `CN(C)CC/C=C1\c2ccccc2CSc2ccccc21` [DOTHIEPIN], the “Hepatotoxicity (acute)” value in [1] is 0%; in [6], 3. The “Hepatotoxicity (chronic liver disease)” value in data set [2] turned out to be 0. The “Hepatotoxicity (association with vascular disease)” value in data set [3] is reported as 0. In addition, the “Hepatotoxicity (moderate)” value in [4] worked out at 1; in data set [12], 4.5%. Besides, the “Hepatotoxicity (malignant tumour)” value in data set [5] worked out at 0. Also, the “Hepatotoxicity (time to onset)” value in data set [7] is recorded as 40 days - 69 days. In [8], the “Hepatotoxicity (comment)” value is on record as “RC/PAROXETINE”. The “Hepatotoxicity (cytolytic)” value in data set [9] amounted to 2. Further, the “Hepatotoxicity (benign tumour)” value in data set [10] was determined as 0. Further, in [11], the “Hepatotoxicity (steatosis)” value is 1. Further, the “Hepatotoxicity (severe hepatitis)” value in data set [13] is given as 0. Further, the “Hepatotoxicity (granulomatous hepatitis)” value in data set [14] was found to be 0. The “Hepatotoxicity (choleostasis)” value in [15] is recorded as 2. Also, in data set [16], the “Hepatotoxicity (cirrhosis)” value was 0.

As for `NCCCC(O)(P(=O)(O)O)P(=O)(O)O` [ALENDRONIC ACID], the “Hepatotoxicity (acute)” value is 0% in data set [1] (Liver) and 3 in data set [6]. Also, the “Hepatotoxicity (chronic liver disease)” value in data set [2] is on record as 0. In addition, the “Hepatotoxicity (association with vascular disease)” value in data set [3] amounted to 0. Also, the “Hepatotoxicity (moderate)” value stood at 2 in data set [4] and 1.6% in data set [12] (Liver). Also, the “Hepatotoxicity (malignant tumour)” value in [5] was 0. In addition, the “Hepatotoxicity (time to onset)” value in data set [7] came to 2 months - 6 months. Moreover, in data set [8], the “Hepatotoxicity (comment)” value was “AC_ANTI-ML”. For the same compound, the “Hepatotoxicity (cytolytic)” value in data set [9] (Liver) is reported as 3. Further, the “Hepatotoxicity (benign tumour)” value in [10] worked out at 0. Further, the “Hepatotoxicity (steatosis)” value in [11] is 0. Further, in data set [13] (Liver), the “Hepatotoxicity (severe hepatitis)” value is recorded as 1. In addition, the “Hepatotoxicity (granulomatous hepatitis)” value in [14] (Liver) was determined as 0. Moreover, in [15] (Liver), the “Hepatotoxicity (choleostasis)” value turned out to be 0. Also, in data set [16], the “Hepatotoxicity (cirrhosis)” value was 0.

In the case of `CCOc1nc2cccc(C(=O)O)c2n1Cc1ccc(-c2ccccc2-c2nnn[nH]2)cc1`, the “Hepatotoxicity (acute)” value is on record as 0% in data set [1] and 2 in data set [6]. For the same compound, in data set [2], the “Hepatotoxicity (chronic liver disease)” value stood at 0. The “Hepatotoxicity (association with vascular disease)” value in data set [3] came to 0. Moreover, the “Hepatotoxicity (moderate)” value in [4] is recorded as 3; in [12], 2.4%. Moreover, in [5], the “Hepatotoxicity (malignant tumour)” value amounted to 0. Also, in data set [7], the “Hepatotoxicity (time to onset)” value was 2 weeks - 5.5 months. In addition, the “Hepatotoxicity (comment)” value in data set [8] is listed as “DUCTOPENIE”. Besides, the “Hepatotoxicity (cytolytic)” value in data set [9] was found to be 3. Also, the “Hepatotoxicity (benign tumour)” value in data set [10] came to 0. Further, the “Hepatotoxicity (steatosis)” value in data set [11] was 1. Moreover, the “Hepatotoxicity (severe hepatitis)” value in [13] was 1. For the same compound, the “Hepatotoxicity (granulomatous hepatitis)” value in data set [14] stood at 0. For the same compound, the “Hepatotoxicity (choleostasis)” value in data set [15] is reported as 0. The “Hepatotoxicity (cirrhosis)” value in [16] is recorded as 0.

With `CS(=O)(=O)OCCCCOS(C)(=O)=O` [BUSULFAN], the results for the “Hepatotoxicity (acute)” value in data set [1] and in [6] were 6.7% and 6, respectively. For the same compound, the “Hepatotoxicity (chronic liver disease)” value in data set [2] was determined as 0. Besides, the “Hepatotoxicity (association with vascular disease)” value in data set [3] amounted to 42. For the same compound, the “Hepatotoxicity (moderate)” value in data set [4] is reported as 11; in data set [12] it was 100%. Moreover, the “Hepatotoxicity (malignant tumour)” value in data set [5] came to 0. The “Hepatotoxicity (time to onset)” value in data set [7] was found to be 2 days - 6 years. Besides, in data set [8], the “Hepatotoxicity (comment)” value is recorded as “HNR(I/THIOGUANINE) MVO”. Further, in [9], the “Hepatotoxicity (cytolytic)” value came out at 3. In addition, the “Hepatotoxicity (benign tumour)” value in data set [10] is given as 0. The “Hepatotoxicity (steatosis)” value in [11] is recorded as 0. In addition, the “Hepatotoxicity (severe hepatitis)” value in [13] amounted to 4. Moreover, in data set [14], the “Hepatotoxicity (granulomatous hepatitis)” value is given as 0. The “Hepatotoxicity (choleostasis)” value in data set [15] is 3. Further, the “Hepatotoxicity (cirrhosis)” value in data set [16] amounted to 1.

In the case of `CCC(=O)O[C@@H](O[P@](=O)(CCCCc1ccccc1)CC(=O)N1C[C@H](C2CCCCC2)C[C@H]1C(=O)O)C(C)C` [FOSINOPRIL], the “Hepatotoxicity (acute)” value amounted to 0% in data set [1] and 2 in [6]. For the same compound, the “Hepatotoxicity (chronic liver disease)” value in data set [2] is 0. Moreover, in [3], the “Hepatotoxicity (association with vascular disease)” value is 0. Also, the “Hepatotoxicity (moderate)” value in [4] turned out to be 3; in data set [12], 1.2%. Besides, the “Hepatotoxicity (malignant tumour)” value in [5] came to 0. Besides, in data set [7], the “Hepatotoxicity (time to onset)” value was 3 weeks - 3 months. Besides, in [8], the “Hepatotoxicity (comment)” value is on record as “PERICHOLANGITE CHOLESTASE_PROLONGEE”. In data set [9], the “Hepatotoxicity (cytolytic)” value was 0. In addition, the “Hepatotoxicity (benign tumour)” value in data set [10] is 0. For the same compound, in [11], the “Hepatotoxicity (steatosis)” value is recorded as 0. Besides, the “Hepatotoxicity (severe hepatitis)” value in data set [13] was 0. In addition, the “Hepatotoxicity (granulomatous hepatitis)” value in data set [14] is listed as 0. For the same compound, the “Hepatotoxicity (choleostasis)” value in data set [15] is given as 2. Also, the “Hepatotoxicity (cirrhosis)” value in data set [16] came out at 0.
